Literature values, collected in patent US12226530B2, “Lenalidomide gastro-retentive sustained-release tablet and preparation method thereof” (DiQi Pharmaceuticals Co., Ltd., priority 2018, dated 2025).
Read-outs that look alike come from different tables or passages of the source.

Columns and labels:
[1] = not given; remark: listed apart in the source

## Nc1cccc2c1CN(C1CCC(=O)NC1=O)C2=O (centres unmarked) [lenalidomide]
Solvent pH 1.2, 6 hours
  Change of concentration: unchanged
Solvent pH 4.5, 6 hours
  Decrease of concentration: 6%
Solvent pH 6.8, 6 hours
  Decrease of concentration: 16%
[1]; hydrochloric acid buffer with a pH of 1.2
  Solubility: about 18 mg/ml
[1]; pH of solution medium greater than 4.6
  Solubility: lower than 0.6 mg/ml
